The data set addresses T1, Broad substrate specificity ATP-binding cassette transporter ABCG2 (Homo sapiens, UniProt Q9UNQ0).
T1 sequence (Q9UNQ0 whole entry): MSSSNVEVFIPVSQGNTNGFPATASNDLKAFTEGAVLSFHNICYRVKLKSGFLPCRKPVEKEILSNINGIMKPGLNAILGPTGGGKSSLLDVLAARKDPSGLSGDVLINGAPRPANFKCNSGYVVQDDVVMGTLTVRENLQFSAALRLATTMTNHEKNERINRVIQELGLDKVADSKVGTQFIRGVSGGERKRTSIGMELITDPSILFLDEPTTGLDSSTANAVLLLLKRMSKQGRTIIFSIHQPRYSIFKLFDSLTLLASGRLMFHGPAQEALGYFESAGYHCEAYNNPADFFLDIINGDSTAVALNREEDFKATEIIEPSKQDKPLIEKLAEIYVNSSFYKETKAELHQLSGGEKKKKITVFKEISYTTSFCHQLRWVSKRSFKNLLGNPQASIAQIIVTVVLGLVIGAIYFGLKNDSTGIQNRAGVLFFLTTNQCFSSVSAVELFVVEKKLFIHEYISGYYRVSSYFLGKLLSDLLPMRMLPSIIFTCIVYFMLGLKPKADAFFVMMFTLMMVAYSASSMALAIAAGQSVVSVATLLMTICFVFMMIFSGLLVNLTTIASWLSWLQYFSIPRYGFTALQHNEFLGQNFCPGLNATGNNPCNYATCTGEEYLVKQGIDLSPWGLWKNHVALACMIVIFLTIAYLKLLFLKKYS
Nature of the data set: TP_TRANSPORTER: uptake in BCRP-expressing oocyte cells. In kind it is functional, cell-based. Conditions: xenopus laevis.

As for `O=C1c2c(O)ccc(O)c2C(=O)c2c(NCCNCCO)ccc(NCCNCCO)c21` [MITOXANTRONE], the Activity result is “substrate []”.
With `CN1CC[C@H](c2c(O)cc(O)c3c(=O)cc(-c4ccccc4Cl)oc23)[C@H](O)C1` [ALVOCIDIB], the Activity result is “substrate []”.
For `COc1cccc2c1C(=O)c1c(O)c3c(c(O)c1C2=O)C[C@@](O)(C(C)=O)C[C@@H]3O[C@H]1C[C@H](N)[C@H](O)[C@H](C)O1` [DAUNORUBICIN] the value was “substrate []”; for `COC(=O)c1ccccc1-c1c2ccc(=N)cc-2oc2cc(N)ccc12.Cl` [RHODAMINE123], “substrate []”.
